# Data from PubChem BioAssay (NCI).
#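 All cell lines were grown in 96-well plates and treated with compound for 48 hours. GI50 = concentration required for 50% inhibition of growth. TGI marks complete inhibition of growth.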
# Test system: MDA-MB-468 breast
# Test: NCI tumour cell line growth inhibition, 48 h
SMILES,GI50 [µM],TGI [µM]
COC1=CC(c2ccc[nH]2)=N/C1=C\c1[nH]c(C)c(C(=O)CCCCC(=O)Oc2ccc3c(c2)CCC2C3CC[C@]3(C)[C@@H](O)CC[C@@H]23)c1C (some centres not stated),4.92,> 100
COc1cc(-c2cc(-c3cc(OC)c(OC)c(OC)c3)nc3nc(N)[nH]c(=O)c23)ccc1Oc1ccnc2cc(Cl)ccc12,3.24,> 100
COc1cc(C(=O)Nc2cc(OC)c3ccn(C)c3c2)cc2c1C[C@]1(C)CC[C@@H](O)C(C)(C)[C@H]1O2,0.488,3.01
CCN(CC)Cc1c(/C=C\c2cc(OC)c(OC)c(OC)c2)ccc(OC)c1O,7.97,34
CCOC(=O)C(=O)/C(=C/N1C(=O)CC(=O)NC1=S)C(=O)OCC,> 100,> 100
O=C1OCC2=C1C(c1ccc(Cl)c(Cl)c1)c1cc3c(cc1N2CCO)CCC3 (configuration not stated),0.109,0.35
Cc1ccc(NC(=O)c2sc3nc4c(cc3c2N)C(=O)CCC4)cc1C,0.314,> 100
N#C[Se]CCCNS(=O)(=O)C1CC2C=CC1C2 (configuration not stated),1.29,4.16
CCCCCCCCCCCCCCCCC(=O)O.CCCCCCCCCCCCCCCCCC(=O)O.CCCCCCCCCCCCCCCCCC(=O)O.CCCCCCCCCCCCCCCCCC(=O)O.CCCCCCCCCCCCCCCCCC(=O)O.CO[CH-]OC12COC1CC(O)C1(C)C(O)C(OC(C)O)C3=C(C)C(OC(=O)C(O)C([NH-])c4ccccc4)CC(O)(C(OC(=O)c4ccccc4)C21)C3(C)C.[Cu+].[Zn].[Zn].[Zn].[Zn].[Zn] (configuration not stated),0.00338,0.0166
CC(=O)c1cc(C(=O)c2ccc3c(c2)Sc2ccccc2N3)c2cc(C)ccn12,0.0663,7.21
CC(=O)OC1CC2C3CCC4C[C@@H](NC(=O)C=C(C)C)CC[C@]4(C)C3CC[C@]2(C)[C@H]1C(C)N(C)C (some centres not stated),0.8,2.37
COc1ccc(Nc2cc(C)nc(NCCCNc3ccnc4cc(Cl)ccc34)n2)cc1,1.39,2.79
COc1cc(C(=O)N/N=C/c2ccc(N(C)C)cc2)cc(OC)c1OC,0.225,1.19
Cc1ccc(Cl)c(Nc2ccccc2C(=O)O)c1Cl,25.9,67.2
CC1=C2C(=C[C@@](C)(COS(C)(=O)=O)[C@@H]2O)C(=O)[C@](C)(O)C12CC2,0.201,0.519
O=C(Nc1n[nH]c2nnc(-c3cccnc3)cc12)C1CC1,0.805,5.02
O=C(/C=C/c1csc(Br)n1)NO,2.9,21.5

SMILES,GI50 [µM],TGI [µM]
Oc1cc2ccccc2c(-c2c(O)c(O)cc3ccccc23)c1O,1.09,17.2
Cn1c(/C=C/[N+](=O)[O-])cc2ccccc21,1.77,3.37
COc1ccc(/C=C/C(=O)c2ccc(OC)c(OC)c2)cc1O,3.59,19.6
COc1ccc(N2CCN(C3=C(Cl)C(=O)c4ncccc4C3=O)CC2)cc1,1.84,3.5
CCOc1cccc(-c2nc(N)nc(Nc3ccccc3SSc3ccccc3Nc3nc(N)nc(-c4cccc(OCC)c4)n3)n2)c1,24.2,> 100
O=c1oc2ccc(Br)cc2c(=O)n1-c1ccc(I)cc1F,0.547,2.04
Cn1c(=O)c(Oc2ccc(F)cc2F)cc2cnc(NC3CCS(=O)(=O)CC3)nc21,> 25,> 25
CN(C)c1ccc(/C=C/C2=[N+](C)c3ccccc3C2(C)C)cc1,0.555,6.19
CN1CCN(Cc2ccc(NC(=O)c3cccc(C#Cc4cnc(N)c5ncccc45)c3F)cc2C(F)(F)F)CC1,6.2,16
COc1ccc(/C=C2\C=C(c3ccccc3)N(CCc3ccccc3)C2=O)cc1OC,7.57,42.4
O=C1c2cccc(NCCN=Cc3ccccc3O)c2C(=O)c2c(NCCN=Cc3ccccc3O)cccc21,–,0.191
Clc1ccc(-c2cc(-c3ccccc3)nc(NCCNc3ccnc4cc(Cl)ccc34)n2)cc1,1.48,3.15
NC(N)=N/N=C/c1ccc(-c2ccc(-c3cc(Cl)cc(Cl)c3)s2)cc1,1.83,3.81
CCCCCCCCn1ccc2cc(NC(=O)Cn3cc(CN4CCCCC4)nn3)ccc21,1.67,3.73
CC1(C)[C@@H](OC(=O)CCC(=O)O)CC[C@]2(C)[C@H]3C(=O)C=C4[C@@H]5C[C@@](C)(C(=O)O)CC[C@]5(C)CC[C@@]4(C)[C@]3(C)CC[C@@H]12,78.6,189
CN1C/C=C/CCOc2cccc(c2)-c2ccnc(n2)Nc2cccc(c2)C1,0.0366,0.107
COc1cc2c(cc1Nc1nc(Nc3cccc(F)c3C(N)=O)c3cc[nH]c3n1)N(C(=O)CN1CCN(C(C)C)CC1)CC2,2.22,5.73
